According to article PMC8930988, “The NSAID glafenine rescues class 2 CFTR mutants via cyclooxygenase 2 inhibition of the arachidonic acid pathway” (Scientific Reports, 2022):
Counter-ions that a name gives are not always drawn.

Biological target: T1, cyclooxygenase 2 (COX2) (Homo sapiens, UniProt P35354)
T1 construct: gene PTGS2; recombinant COX-2 (kit)
T1 sequence (P35354 18-604): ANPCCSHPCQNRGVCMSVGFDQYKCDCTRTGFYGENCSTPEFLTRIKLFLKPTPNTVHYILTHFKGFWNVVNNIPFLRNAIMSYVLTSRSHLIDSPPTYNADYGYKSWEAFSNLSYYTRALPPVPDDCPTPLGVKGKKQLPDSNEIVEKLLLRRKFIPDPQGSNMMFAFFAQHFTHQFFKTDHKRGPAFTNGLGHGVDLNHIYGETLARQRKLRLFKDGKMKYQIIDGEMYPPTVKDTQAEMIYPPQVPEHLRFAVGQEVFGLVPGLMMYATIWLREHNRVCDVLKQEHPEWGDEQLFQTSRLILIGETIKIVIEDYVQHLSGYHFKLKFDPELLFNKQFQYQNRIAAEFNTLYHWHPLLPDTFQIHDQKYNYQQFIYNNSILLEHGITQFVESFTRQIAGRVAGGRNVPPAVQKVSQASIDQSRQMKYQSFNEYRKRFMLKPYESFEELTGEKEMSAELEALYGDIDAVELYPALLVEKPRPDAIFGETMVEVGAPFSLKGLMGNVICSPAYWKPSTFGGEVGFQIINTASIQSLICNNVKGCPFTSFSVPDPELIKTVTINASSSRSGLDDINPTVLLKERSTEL
Assay: COX activity assay with recombinant enzyme, […] compound (Fig. 4E)
Type: biochemical

Structure (SMILES): O=C(OCC(O)CO)c1ccccc1Nc1ccnc2cc(Cl)ccc12 (stereo not shown) [compound 37, 2,3-dihydroxypropyl 2-[(7-chloroquinolin-4-yl)amino] benzoate; hydrochloride]
- COX activity assay with recombinant enzyme, 10 μM compound (Fig. 4E): COX2 inhibition is required for glafenine-mediated CFTR correction and that glafenine interacts directly with COX2
